Data: patent US6271369A, “Chimeric molecules targeted to viral RNAs” (priority 1997, dated 2001)

Assays:
TAR:vif RNA = assay: Cleavage of control TAR:vif RNA (no oligo(rA) tract) in Daudi cell extract; type: biochemical, HIV-1; settings: 0.2 or 1.0 μM
From the text: To determine the ability of the 2-5A:AS chimeric molecule SEQ ID NO:1 to induce site-directed RNA cleavage, a target RNA was constructed having an internal 3',5'-oligo(rA) tract. Hybridization between the (dT18) in SEQ ID NO:1 with the oligo(rA) in the target RNA attracts 2-5A-dependent RNase to the target RNA, resulting in a highly specific cleavage event. The experimental target, TAR:A25 :vif RNA, was produced in vitro from a pSP64-derived plasmid containing a partial cDNA for the HIV vif protein interrupted with 25 adenylyl residues. A control TAR:vif RNA was constructed with the A25 tract deleted. These RNA species, which lack 3'-poly(rA) tails, were radiolabeled at their 3'-termini with [5'-^32 p)-pCp by T4 RNA ligase and gel purified prior to the assay. […]
Daudi cell extracts prepared with dounce homogenization were made by the well known method of Wreschner, et al. in a buffer containing 40mM KCl; 10 mM HEPES pH 7.5; 2.5mM magnesium acetate; 0.5mM ATP; 2.5% glycerol and 2.0mM mercaptoethanol. […] Cleavage products were analyzed in 6% polyacrylamide/8M urea gels (30×40×0.04cm).
This property of the 2-5A:AS molecule was determined by experiments employing unmodified 2-5A. […]

2-5A-dependent RNase = assay: Radiobinding (nitrocellulose filter) competition assay for 2-5A-dependent RNase in mouse liver extract; type: binding
Description: SEQ ID NO:1, SEQ ID NO:2, Chimeric Molecule 3, and Chimeric Molecule 4 were tested for their ability to bind to 2-5A-dependent RNase in vitro. The affinity of these 2-5A:AS constructs for 2-5A-dependent RNase was established with a highly specific radiobinding assay. This radiobinding assay measured the ability of 2-5A or 2-5A analogs to compete with a ^32 P-labeled 2-5A probe, ppp5'A2'p5'A2'p5'A2'p5'A3'-[^32 p]p5'C3'p, for binding to 2-5A-dependent RNase. The nitrocellulose filter binding assay of Knight et al. (Methods Enzymol. , 79: 216 (1981)) was used to measure the concentrations of 2-5A or the chimeric 2-5A:AS molecule required to compete with the radiolabeled probe, ppp5'A2'-p5'A2'p5'A2'p5A3'[^32 P]p5C3'p, for binding to 2-5A-dependentRNase in a mouse liver extract.
FIGS. 3A and 3B show the relative affinities of SEQ ID NO:1 (.tangle-solidup.) and 2-5A (ppp5'A2'p5'A2'p5'A) (.circle-solid.) for 2-5A-dependent RNase. A measure of 100% binding was found in the absence of any unlabeled oligonucleotide. The data for SEQ ID NO:1 and 2-5A in these figures represent the means and standard deviations from 6 and 7 assays, respectively.

## p5'A2'(p5'A2')2 P5'A2'p1[OCH2 (CH2)2 CH2 O]4p1[OCH2 (CH2)2 CH2 O]4p5'pdT3'(p5'dt3')16 p5'dt (AAAATTTTTTTTTTTTTTTTTT; chemistry not fully specified) [SEQ ID NO:1]
TAR:vif RNA
  specific cleavage in TAR:vif RNA lacking the oligo(rA) tract: failed to yield a specific cleavage
2-5A-dependent RNase; compared with ppp5'A2'p5'A2'p5'A, FIG. 3A
  IC50 / ability to bind 2-5A-dependent RNase compared with unmodified 2-5A: very little, if any, decrease in the IC50
2-5A-dependent RNase; mixed with excess poly(A), FIG. 3B
  binding affinity to 2-5A-dependent RNase when annealed to complementary sequence: no significant change in the binding affinity
